Results: patent EP3002286B1, “PREPARATION METHOD FOR POLYMORPHIC 6-(4-CHLOROPHENOXY)-TETRAZOLO[5,1-A]PHTHALAZINE AND USE THEREOF” (Jilin Yinglian Shangde Science and Technology Development …, priority 2014, dated 2015)

Tests used:
[1] = system: maximal electroshock seizure; test: Maximal electroshock (MES) test; assay type: in vivo; conditions: mice; for ED50: Mus musculus, po; for ED50 / ED50, MES: p.o (intragastrically, i.g.), effect against electroshock seizure
Experimental: Maximal electroshock (MES) test is an ideal animal model for evaluating a compound having a potential anti-epileptic effect, and if the compound can be applied against the maximal electroshock seizure, then it is likely to be further developed as a drug for treatment of grand mal clinically. Each of the four crystalline forms of this invention was intragastrically (i.g.) administered to mice respectively, each median effective dose (ED50) for the effect against electroshock seizure was measured, and each anti-convulsion effect was assessed. Table 3 Comparison of the pharmacological effect of the anti-convulsion of the crystalline forms (mg/kg, p.o)

[2] = Comparison of solubility of the crystalline forms in water (UV absorbance of saturated solution); assay type: physicochemical; conditions: for Absorbance (Abs): saturated water solution (10mg in 1ml of water, stirred 1 hour, filtered), diluted 10 times, ultraviolet spectrophotometer; for Solubility relationship with respect to Form A: water, concentration ratio from absorbance according to the Lambert-Beer law
Experimental: 10mg of 6-(4-chlorophenoxy)-tetrazolo[5,1-a]phthalazine in each of the four crystalline forms was dissolved into 1ml of water, respectively, and the mixture was stirred for 1 hour so as to reach a solubility equilibrium with a supersaturated state being kept, and then the resultant mixture was filtered to give a clear and saturated water solution for each of the crystalline forms, respectively. Then, each solution was diluted 10 times, and absorbance thereof was measured using a ultraviolet spectrophotometer, and then the concentration ratio of 6-(4-chlorophenoxy)-tetrazolo[5,1-a]phthalazine in each solution could be determined according to the Lambert-Beer law, so as to obtain the solubility relationship among the four crystalline forms (see Table 2 for results). Table 2 Comparison of solubility of the crystalline forms

[3] = Stability of the crystalline forms (suspension balance), product form decided by XRPD; assay type: physicochemical; conditions: suspension time 2 days
Experimental: 20mg of crystalline form A and 20mg of crystalline form B were mixed, then placed into 1ml of methanol as a solvent, followed by mixing the resultant suspension with a magnetic stirrer at a rotational speed of 100 rpm for two days. And then, the suspension was filtered, and the product obtained was washed with a small amount of methanol, followed by drying at room temperature to give a solid, which was analyzed with XRPD to decide the crystalline form of the product. Other sample mixtures were also shown in Table 1 (see Table 1 for results). Table 1 Comparison of the stability of the crystalline forms (suspension balance)

Row | SMILES | Absorbance (Abs) [2] [Abs] | Solubility relationship with respect to Form A [2] [times] | ED50, MES [1] [mg/kg] | further results
1 | NC(=O)N1c2ccccc2C=Cc2ccccc21 [Carbamazepine, reference compound] | – | – | – | ED50 [1]: 15.4 mg/kg
2 | Clc1ccc(Oc2nn3nnnc3c3ccccc23)cc1 [Crystalline form A, 6-(4-chlorophenoxy)-tetrazolo[5,1-a]phthalazine] | 0.0407 | – | – | ED50 [1]: 15.6 mg/kg
3 | Clc1ccc(Oc2nn3nnnc3c3ccccc23)cc1 [Crystalline form B, 6-(4-chlorophenoxy)-tetrazolo[5,1-a]phthalazine] | 0.279 | 6.8 | 9.2 | –
4 | Clc1ccc(Oc2nn3nnnc3c3ccccc23)cc1 [Crystalline form C, 6-(4-chlorophenoxy)-tetrazolo[5,1-a]phthalazine] | 0.326 | 8.0 | 8.5 | water solubility (in words) ([2]; comparison among the crystalline forms): best water solubility; anti-convulsion effect (in words) ([1]; comparison among the crystalline forms, intragastrically administered): strongest anti-convulsion effect
5 | Clc1ccc(Oc2nn3nnnc3c3ccccc23)cc1 [Crystalline form D, 6-(4-chlorophenoxy)-tetrazolo[5,1-a]phthalazine] | 0.134 | 3.3 | 12.7 | –
6 | Clc1ccc(Oc2nn3nnnc3c3ccccc23)cc1 [Form A + Form B, 6-(4-chlorophenoxy)-tetrazolo[5,1-a]phthalazine] | – | – | – | Crystalline form of the product ([3]; solvent for suspension Methanol): Form A
7 | Clc1ccc(Oc2nn3nnnc3c3ccccc23)cc1 [Form A + Form C, 6-(4-chlorophenoxy)-tetrazolo[5,1-a]phthalazine] | – | – | – | Crystalline form of the product ([3]; solvent for suspension Methyl ethyl ketone): Form A
8 | Clc1ccc(Oc2nn3nnnc3c3ccccc23)cc1 [Form A + Form D, 6-(4-chlorophenoxy)-tetrazolo[5,1-a]phthalazine] | – | – | – | Crystalline form of the product ([3]; solvent for suspension Nitromethane + n-hexane): Form A
